In ChEMBL document CHEMBL1144049, “Functional assay and structure-activity relationships of new third-generation P-glycoprotein inhibitors” (Bioorg Med Chem, 2008):

Assays:
[1] = biological target: T1, ATP-dependent translocase ABCB1 (Homo sapiens, UniProt P08183); test: Inhibition of human Pgp in A2780 cells after 30 mins by Hoechst 33342 assay; type: cell-based
[2] = biological target: T1, ATP-dependent translocase ABCB1; test: Inhibition of human Pgp in A2780 cells after 30 mins by calcein AM assay; type: cell-based
[3] = biological target: T1, ATP-dependent translocase ABCB1
Description: Inhibition of Pgp by daunorubicin accumulation assay

[4] = biological target: ATP-dependent translocase ABCB1 (Mus musculus, UniProt P06795); test: Inhibition of mouse Pgp in EMT6/AR1.0 cells after 1 hr by daunorubicin accumulation assay; type: cell-based
Chain of ATP-dependent translocase ABCB1 (Mus musculus, UniProt P06795) (P06795 whole entry): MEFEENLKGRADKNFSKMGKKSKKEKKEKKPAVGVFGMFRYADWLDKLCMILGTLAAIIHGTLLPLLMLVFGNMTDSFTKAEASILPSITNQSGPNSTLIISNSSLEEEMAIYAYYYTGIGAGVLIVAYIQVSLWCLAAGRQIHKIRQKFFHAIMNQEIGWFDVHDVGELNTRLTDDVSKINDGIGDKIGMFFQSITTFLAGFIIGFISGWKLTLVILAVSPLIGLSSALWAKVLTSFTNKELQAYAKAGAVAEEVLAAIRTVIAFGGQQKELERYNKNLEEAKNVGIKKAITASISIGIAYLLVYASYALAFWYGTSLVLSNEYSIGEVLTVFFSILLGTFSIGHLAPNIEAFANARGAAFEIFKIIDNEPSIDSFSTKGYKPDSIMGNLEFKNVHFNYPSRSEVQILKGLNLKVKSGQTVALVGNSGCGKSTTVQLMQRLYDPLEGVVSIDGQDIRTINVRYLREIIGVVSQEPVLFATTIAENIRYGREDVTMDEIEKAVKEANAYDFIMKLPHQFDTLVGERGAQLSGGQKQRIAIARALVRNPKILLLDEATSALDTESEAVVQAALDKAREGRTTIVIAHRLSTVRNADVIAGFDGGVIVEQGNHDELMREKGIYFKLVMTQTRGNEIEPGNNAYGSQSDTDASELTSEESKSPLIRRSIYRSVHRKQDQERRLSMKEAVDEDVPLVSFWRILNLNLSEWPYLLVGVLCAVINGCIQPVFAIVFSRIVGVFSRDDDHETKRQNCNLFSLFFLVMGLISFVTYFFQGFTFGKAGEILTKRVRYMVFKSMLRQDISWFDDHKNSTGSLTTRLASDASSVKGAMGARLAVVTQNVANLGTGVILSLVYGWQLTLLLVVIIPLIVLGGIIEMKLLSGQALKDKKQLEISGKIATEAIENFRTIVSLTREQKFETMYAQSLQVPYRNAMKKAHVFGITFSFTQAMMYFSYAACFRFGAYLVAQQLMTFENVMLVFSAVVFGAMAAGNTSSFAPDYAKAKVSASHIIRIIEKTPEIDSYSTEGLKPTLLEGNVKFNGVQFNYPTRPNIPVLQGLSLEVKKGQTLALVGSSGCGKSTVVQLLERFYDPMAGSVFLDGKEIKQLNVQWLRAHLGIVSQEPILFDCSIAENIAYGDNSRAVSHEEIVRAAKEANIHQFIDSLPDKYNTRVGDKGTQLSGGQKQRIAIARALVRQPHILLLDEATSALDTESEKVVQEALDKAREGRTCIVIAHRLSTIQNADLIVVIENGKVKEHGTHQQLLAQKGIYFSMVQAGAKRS

T1 sequence (P08183 whole entry): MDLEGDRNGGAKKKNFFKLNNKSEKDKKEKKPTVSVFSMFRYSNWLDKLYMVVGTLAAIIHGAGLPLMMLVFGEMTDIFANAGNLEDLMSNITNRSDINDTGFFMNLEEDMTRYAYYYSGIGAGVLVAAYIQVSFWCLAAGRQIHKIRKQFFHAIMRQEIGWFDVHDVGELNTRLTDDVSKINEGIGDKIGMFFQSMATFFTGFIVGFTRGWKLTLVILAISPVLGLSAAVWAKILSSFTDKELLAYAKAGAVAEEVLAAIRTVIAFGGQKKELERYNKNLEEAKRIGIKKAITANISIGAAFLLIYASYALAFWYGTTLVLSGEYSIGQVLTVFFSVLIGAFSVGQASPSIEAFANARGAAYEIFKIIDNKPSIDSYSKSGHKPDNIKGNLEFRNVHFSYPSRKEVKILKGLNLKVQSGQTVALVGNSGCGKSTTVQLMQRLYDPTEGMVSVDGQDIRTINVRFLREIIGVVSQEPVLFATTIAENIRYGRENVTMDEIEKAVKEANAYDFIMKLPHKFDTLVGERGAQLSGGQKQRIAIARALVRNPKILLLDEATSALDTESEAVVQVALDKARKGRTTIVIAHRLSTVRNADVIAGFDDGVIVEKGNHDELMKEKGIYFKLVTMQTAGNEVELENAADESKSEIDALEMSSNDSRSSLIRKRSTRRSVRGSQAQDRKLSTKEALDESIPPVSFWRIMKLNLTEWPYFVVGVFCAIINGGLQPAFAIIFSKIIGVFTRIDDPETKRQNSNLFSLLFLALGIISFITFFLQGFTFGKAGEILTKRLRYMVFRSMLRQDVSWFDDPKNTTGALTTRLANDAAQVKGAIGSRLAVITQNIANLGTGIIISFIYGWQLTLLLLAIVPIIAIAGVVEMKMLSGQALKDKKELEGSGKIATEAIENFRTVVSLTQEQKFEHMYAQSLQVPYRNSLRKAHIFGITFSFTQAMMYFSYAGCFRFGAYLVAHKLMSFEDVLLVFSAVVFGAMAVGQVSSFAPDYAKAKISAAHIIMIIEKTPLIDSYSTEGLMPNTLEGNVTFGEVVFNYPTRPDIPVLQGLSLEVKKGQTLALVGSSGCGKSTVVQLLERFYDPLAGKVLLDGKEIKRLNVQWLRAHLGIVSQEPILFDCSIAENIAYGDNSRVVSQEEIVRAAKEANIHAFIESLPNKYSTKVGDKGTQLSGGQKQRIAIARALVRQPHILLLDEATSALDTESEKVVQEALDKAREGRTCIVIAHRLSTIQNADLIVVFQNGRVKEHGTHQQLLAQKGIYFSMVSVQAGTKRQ

Row | Structure (SMILES) | IC50 [1] [µM] | IC50 [2] [µM] | IC50 [3] [µM] | IC50 [4] [µM]
1 | COc1cc2c(cc1OC)CN(CCc1ccc(NC(=O)c3cc4ccccc4cn3)cc1)CC2 | 0.776 | 0.851 |  | 
2 | COc1cc2c(cc1OC)CN(CCc1ccc(NC(=O)c3ccccc3NC(=O)c3ccccc3)cc1)CC2 |  | 0.724 | 0.25 | 0.3
3 | COc1cc2c(cc1OC)CN(CCc1ccc(NC(=O)c3ccnc4ccccc34)cc1)CC2 | 2.24 | 2.82 |  | 
4 | COc1cc2c(cc1OC)CN(CCc1ccc(NC(=O)c3ccc4ncccc4c3)cc1)CC2 | 0.741 | 0.724 |  | 
5 | COc1cc2c(cc1OC)CN(CCc1ccc(NC(=O)c3cnc4ccccc4n3)cc1)CC2 | 0.209 | 0.49 |  | 
6 | COc1cc2c(cc1OC)CN(CCc1ccc(NC(=O)c3ccccc3N)cc1)CC2 | 11.2 | 9.12 |  | 
7 | COc1cc2c(cc1OC)CN(CCc1ccc(NC(=O)c3cc(OC)c(OC)cc3NC(=O)c3cnc4ccccc4c3)cc1)CC2 | 0.126 |  | 0.038 | 0.064
8 | O=C(Nc1ccc(CCN2CCc3ccccc3C2)cc1)c1ccc([N+](=O)[O-])cc1 | 5.01 | 4.47 |  | 
9 | COc1cc2c(cc1OC)CN(CCc1ccc(NC(=O)c3ccc([N+](=O)[O-])cc3)cc1)CC2 | 1.38 | 1.1 |  | 
10 | O=C(Nc1ccccc1C(=O)Nc1ccc(CCN2CCc3ccccc3C2)cc1)c1cnc2ccccc2c1 |  | 0.447 |  | 0.32
11 | COc1cc2c(cc1OC)CN(CCc1ccc(NC(=O)c3ccc(N)cc3)cc1)CC2 | 7.08 | 4.07 |  | 
12 | Nc1ccc(C(=O)Nc2ccc(CCN3CCc4ccccc4C3)cc2)cc1 | 4.17 | 13.5 |  | 
13 | COc1cc2c(cc1OC)CN(CCc1ccc(NC(=O)c3ccc4ccccc4c3)cc1)CC2 | 0.776 | 0.776 |  | 
14 | COc1cc2c(cc1OC)CN(CCc1ccc(NC(=O)c3cccc(Br)c3)cc1)CC2 | 3.24 | 2.29 |  | 
15 | COc1cc2c(cc1OC)CN(CCc1ccc(NC(=O)c3ccccc3[N+](=O)[O-])cc1)CC2 | 5.5 | 4.79 |  | 
16 | COc1cc2c(cc1OC)CN(CCc1ccc(NC(=O)c3ccccc3NC(=O)c3ccc(C)cc3)cc1)CC2 | 0.525 | 0.692 |  | 0.26
17 | COc1cc2c(cc1OC)CN(CCc1ccc(NC(=O)c3cccc4ccccc34)cc1)CC2 | 1.86 | 1.41 |  | 
18 | COc1cc2c(cc1OC)CN(CCc1ccc(NC(=O)c3ccccc3Br)cc1)CC2 | 3.47 | 4.27 |  | 
19 | COc1cc2c(cc1OC)CN(CCc1ccc(NC(=O)c3cccnc3)cc1)CC2 | 3.16 | 4.17 |  | 
20 | COc1cc2c(cc1OC)CN(CCc1ccc(NC(=O)c3ccccc3NC(=O)c3cnc4ccccc4c3)cc1)CC2 | 0.166 | 0.24 | 0.087 | 0.05
21 | COc1cc2c(cc1OC)CN(CCc1ccc(NC(=O)c3cnc4ccccc4c3)cc1)CC2 | 0.145 | 0.646 |  | 
22 | O=C(Nc1ccc(CCN2CCc3ccccc3C2)cc1)c1ccccc1[N+](=O)[O-] | 13.5 | 12.3 |  | 
